We go through one compound from patent US6160166A, “Phosphonated agents and their antiangiogenic and antitumorigenic use” (priority 1999, dated 2000).

In assay [1] the test system is MCF-7 human breast cancer cells. The settings on record: 48 hr (Foekens et al., 1993); cited from earlier work.
The subject of a further assay is urokinase receptor. To be noted: cited from earlier work.
A further assay deals with HMEC-1. Briefly: HMEC-1 cell growth, total protein and total DNA. Type of assay: cell-based, human. The procedure:
Logarithmically growing HMEC-1 or HMVEC-d cells are seeded at 2×10^4 cells/well in six well plates (Falcon) containing 2 ml of MCDB-131 medium supplemented with 5% fetal bovine serum (FBS) (Hyclone). […] After removal of medium, the cell layer is washed twice with 1 ml of cold Hanks balanced salt solution and the cells are dislodged by trypsinization. The cells are collected in microcentrifuge tubes and washed twice with 1 ml of cold phosphate-buffered saline, and then 1 ml of cold 10% trichloroacetic acid are added. Acid precipitable radioactivity are collected on a glass fiber filter (Whatman Grade GF/C) and the radioactivity is determined in a liquid scintillation spectrometer (Packard).

Assay [2] relates to bFGF binding sites of human microvascular endothelial cells. Briefly: I125 bFGF binding to human microvascular endothelial cells. To be noted: for percentage of inhibition of I125 bFGF binding: low and high affinity binding sites. The text has this:
However, for the same concentrations of the phosphonic acid agents, the inhibition of growth factor binding was always less than 5% in relation to the control.
However, for the same concentrations of phosphonic acid agents, the inhibition of growth factor binding was always less than 5% in relation to the control.

The subject of assay [3] is porcine pulmonary artery macrovascular endothelial cell. Briefly: Porcine pulmonary artery macrovascular endothelial cell growth, total protein and total DNA. Type of assay: cell-based.
The test system of the next assay is p34cdc2 kinase. To be noted: literature; extracts from human small cell lung cancer cells; cited from earlier work.
The target in assay [4] is cyclic AMP-dependent protein kinase. The settings on record: Mahoney et al., 1990; cited from earlier work.
Assay [5] has as its system angiogenesis in mouse (Matrigel plus bFGF and heparin). To be noted: Pesenti et al. (1992); cited from earlier work.
In the next assay the test system is PKC type I-III. The settings on record: Mahoney et al., 1990; read-out: ID50, PKC type I-III activity; cited from earlier work.
The next assay relates to prostate carcinoma cells. The settings on record: after 24 hr exposure (Qiao et al., 1994); cited from earlier work.
The test system of assay [6] is human dermal microvascular and porcine pulmonary artery endothelial cells. Briefly: bFGF-stimulated and non-stimulated endothelial cell growth (total protein, total DNA). In kind it is cell-based. The settings on record: suramin 210 μM. The source says:
Suramin is a highly charged molecule with six sulfonate groups that are ionized at physiologic pH.

“Also recorded” adds a separate entry of the source.

Take `Cc1ccc(C(=O)Nc2ccc(S(=O)(=O)O)c3cc(S(=O)(=O)O)cc(S(=O)(=O)O)c23)cc1NC(=O)c1cccc(NC(=O)Nc2cccc(C(=O)Nc3cc(C(=O)Nc4ccc(S(=O)(=O)O)c5cc(S(=O)(=O)O)cc(S(=O)(=O)O)c45)ccc3C)c2)c1` [suramin]: the “effect on cell cycle” value in [1] is reported as “accumulation of MCF-7 human breast cancer cells in the G2-M phase of the cell cycle”; in the assay with prostate carcinoma cells it was “slowly arrested in the G1 phase”. For the same compound, the “inhibition of urokinase receptor mediated plasminogen activation” value with urokinase receptor is “specific inhibition of the activity of the urokinase receptor mediated cell surface plasminogen activation system”. For the same compound, the “effect on cell growth” value in the assay with HMEC-1 (50-100 μg/ml) is listed as “stimulatory effect on cell growth”. The “effect on total protein and total DNA” value with HMEC-1 (suramin higher than 250 μg/ml, agents lower concentrations) was “significant dose-related reduction in total protein and total DNA”; in assay [3] (suramin higher than 250 μg/ml), “significant dose-related reduction in total protein and total DNA”. Also, the “effect on HMEC-1 cell growth” value in the assay on HMEC-1 (up to 100 μg/ml) is on record as “did not have any significant inhibitory effect”. The “percentage of inhibition of I125 bFGF binding” value in assay [2] (25 μM) stood at 9%; in assay [2] (70 μM), 96%. Moreover, in assay [2] (same molar concentrations as suramin), the “effect on bFGF binding, in words” value is given as “inhibited I^125 bFGF binding in a dose-related manner”. Also, in assay [3] (up to 100 μg/ml), the “effect on porcine pulmonary artery macrovascular endothelial cell growth” value is listed as “did not have any significant inhibitory effect”. For the same compound, in the assay on p34cdc2 kinase, the “effect on purified cdc2 kinase / tyrosine phosphorylation” value is “direct inhibitory effect on purified cdc2 kinase and also modulates the tyrosine phosphorylation of cdc2 kinase”. Also, the IC50 was 656 µM in assay [4] and 50 µM in the assay with PKC type I-III. Further, in [5], the “inhibition of angiogenesis in vivo, in words” value was “effective inhibitor of angiogenesis in vivo”. Moreover, the “effect on bFGF stimulation of endothelial cell growth” value in assay [6] is on record as “inhibited the stimulatory effect of bFGF; also recorded: inhibited the growth factor stimulatory effect”.
